Where no end group is shown, it is not given here.
Columns and labels:
[1] = system: C. sojina Cs350 (fungicide resistant); assay: Peptide-fungicide checkerboard assay; assay type: cell-based, Cercospora sojina
Method: (§1) Synergy between NCR13_PFV1 and the widely used QoI foliar fungicides, azoxystrobin (Sigma-Aldrich, Cat No: 31697), trifloxystrobin (Sigma-Aldrich, Cat No: 46447), and pyraclostrobin (Sigma-Aldrich, Cat No: 33696), were evaluated using checkerboard assays. This assay was performed in a 96-well plate and the preparation of conidial suspension, peptide dilutions, and fungicide dilutions were similar to the in vitro antifungal activity assay described above. The presence of an alternative respiration pathway allows some fungi including C. sojina to germinate even in the presence of a high dose of QoI fungicides in vitro ([Ziogas et al., 1997]; [Zhang et al., 2012]). Therefore, to prevent alternative respiration in C. sojina, salicylhydroxamic acid (SHAM) was added in each reaction at the final concentration of 60 µg ml^–1 ([Zhang et al., 2012]). The conidia, peptide, fungicide, and SHAM were added in a 96-well plate at the v/v ratio of 4:1:1:2 (50 µl:12.5 µl:12.5 µl:25 µl) in the final reaction volume of 100 µl, and the plate was incubated at room temperature for 96 h (4 d). After 96 h, MIC values of the peptide–fungicide combination, peptide alone, and fungicide alone were calculated based on microscopy as well as the resazurin cell viability assay. The fractional inhibitory concentration (FIC) index was calculated using the formula FIC = (MICA+B/MICA) + (MICB+A/MICB), where MICA and MICB are the MIC for peptide (A) alone and fungicide (B) alone, respectively, MICA+B is the MIC for peptide in combination with fungicide (A+B), and MICB+A is the MIC for fungicide in combination with peptide (B+A). The FIC index was interpreted as: synergistic, ≤0.5; additive, >0.5–1.0; indifferent, >1 to <4.0; or antagonistic, ≥4.0.

[2] = system: C. sojina Cs320 (fungicide sensitive); assay: Peptide-fungicide checkerboard assay; assay type: cell-based, Cercospora sojina; conditions: Cs320, in vitro, 96 h
Method: as §1

[3] = system: C. sojina Cs350 on soybean cv. Blackhawk (FLS); assay: In planta post-inoculation assay of NCR13_PFV1 and azoxystrobin combinations; assay type: in vivo, Cercospora sojina; conditions: azoxystrobin alone sprayed at 3 µM and 6 µM
Method: To further test additive/synergistic interaction between NCR13_PFV1 and azoxystrobin against the fungicide-resistant isolate Cs350, in planta assays were performed. These assays were similar to the post-inoculation in planta assays as mentioned above. Briefly, second or third trifoliate leaves of soybean were first sprayed with 1 ml of Cs350 conidial suspension (1×10^5 ml^−1) followed by spray application with 1 ml of NCR13_PFV1 (24 µM) or azoxystrobin (3 µM or 6 µM) or their combination (24 µM NCR13_PFV1 plus 3 µM azoxystrobin or 24 µM NCR13_PFV1 plus 6 µM azoxystrobin) or water after 2 h of pathogen inoculation. Plants were incubated in the growth chamber, and disease scoring was done as described above.

[4] = system: C. sojina Cs350 conidia and germlings; assay: Plasma membrane permeabilization assay (SYTOX Green); assay type: cell-based, Cercospora sojina; conditions: Cs350; 0.5 µM SG; confocal microscopy
Method: Membrane permeabilization of C. sojina Cs350 by NCR13_PFV1 and azoxystrobin was analyzed by visualizing the influx of SYTOX Green (SG) (Thermo Scientific) using time-lapse confocal microscopy. Germlings grown for 6–8 h or conidia of C. sojina were mixed with various concentrations of NCR13_PFV1, azoxystrobin, or both and 0.5 µM SG and were observed under confocal microscopy at an excitation wavelength of 500 nm and an emission wavelength ranging from 510 nm to 600 nm at specific time intervals. A z-stack at each time point was acquired using a ×63 water immersion objective lens (HC PL Apochromat CS2).

[5] = system: azoxystrobin-resistant C. sojina Cs350 conidia; assay: Cell death detection assay (propidium iodide, confocal microscopy); assay type: cell-based, Cercospora sojina; conditions: azoxystrobin 48 μM alone; within 1 h; PI staining; n=3
Method: The fungicidal activity of azoxystrobin and peptide NCR13_PFV1 in azoxystrobin-resistant C. sojina Cs350 was analyzed by visualizing the influx of a cell death indicator dye propidium iodide (PI) using time-lapse confocal microscopy. The C. sojina conidia were treated with various concentrations of azoxystrobin, NCR13_PFV1, azoxystrobin plus NCR13_PFV1, or water and 0.5 μg ml^–1 PI, and were observed under confocal microscopy at an excitation and emission wavelength of 500 nm and 545–690 nm, respectively. Z-stacks at each time point were acquired using a ×63 water immersion objective lens (HC PL Apochromat CS2). For each sample, the number of live and dead cells after 1 h of peptide, fungicide, or combination treatment was determined.

[6] = system: C. sojina QoI fungicide-sensitive isolate Cs320; assay: microbe, parasite or virus in culture; assay type: cell-based, Cercospora sojina
Method: (§2) In vitro antifungal activity of AFPs and QoI fungicides was determined using 96-well plate assays as described ([Velivelli et al., 2020]) with slight modifications. Briefly, 2- to 3-week-old C. sojina was used to make a conidial suspension in 2× SFM at the final concentration of ∼10^5 conidia ml^−1. Simultaneously, peptide dilutions (in water) at various concentrations were made. Fungicides were dissolved in 50% acetone and 50% water to make a stock solution of 500 µM, and serial dilutions were made in water as needed. The peptide–conidia or the fungicide–conidia mixture at the ratio of 1:1 (45 µl:45 µl) was added in a 96-well plate and incubated at room temperature for 48 h, after which MICs of the peptides/fungicides were calculated based on microscopy as well as the resazurin cell viability assay ([Velivelli et al., 2020]).

[7] = Peroxidase assay (TMB substrate); assay type: biochemical; conditions: heme 5 µM, peptide 5 µM, absorption at 370 nm and 652 nm
Method: A Pierce TMB substrate kit (Thermo Scientific) was used to measure the peroxidase activity of heme. In a transparent 96-well plate, 50 µl of TMB substrate and 50 µl of […] were added followed by addition of heme (5 µM) or peptides plus heme (5 µM each). The reaction progression was measured in the Tecan plate reader, by recording UV-vis absorption values at 370 nm and 652 nm for every minute up to 1 h.

[8] = Heme-peptide binding assay (colour change); conditions: equimolar heme and peptide, 100 µM, 1 h, room temperature
Method: Heme solutions were freshly prepared by dissolving hemin chloride (Sigma Cat No: 3741) in 0.1 M NaOH and used within an hour after preparation. Two heme-sequestering peptides, NCR247 and NCR455 ([Montiel et al., 2017]; [Sankari et al., 2022]), were used as positive controls, and water-only treatment as a negative control. The equimolar concentration of heme and peptide (100 µM) or water were mixed and incubated at room temperature for 1 h. When dissolved in NaOH, heme is light to dark brown in color; however, when it binds to a peptide, the color changes to reddish-brown as described by [Sankari et al. (2022)]. The change in color of heme to reddish-brown indicated the heme binding ability of the peptide.

[9] = system: fungicide-sensitive and -resistant isolates of C. sojina; assay: In vitro antifungal activity assay (MIC stated across isolates); assay type: cell-based, Cercospora sojina
Method: as §2

[10] = system: C. sojina QoI fungicide-resistant isolate Cs350; assay type: cell-based, Cercospora sojina
Method: as §2

[11] = SFM, ~10^5 conidia ml−1, room temperature, 48 h, resazurin cell viability assay and microscopy

Molecule | interaction with NCR13_PFV1 by FIC index ([1]; Cs350, in vitro, 96 h) | FIC score ([1]; pair azoxystrobin / NCR13_PFV1, Cs350, 4 d) | Combination MIC ([1]; pair azoxystrobin / NCR13_PFV1, Cs350, 4 d, SHAM 60 µg ml–1, microscopy) [µM] | MIC ([1]; pair azoxystrobin / NCR13_PFV1, Cs350, 4 d, SHAM 60 µg ml–1, microscopy, highest fungicide concentration 48 µM, read-out: Individual MIC) [µM] | interaction with NCR13_PFV1 by FIC index [2] | FLS symptoms in planta [3] | plasma membrane permeabilization (SYTOX Green uptake) [4] | cell death [5] [%] | MIC (µM) against Fungicide sensitive C. sojina isolate (Cs320) ([6]; QoI fungicides, determined in 2 days, 0.02 µM lowest concentration tested) [µM] | peroxidase activity of heme and FeSO4 in the presence of peptide [7] | heme binding (colour change of heme from brown to reddish-brown) [8] | fold less potent than NCR13_PFV1 ([9]; from MIC against C. sojina) [fold] | MIC against fungicide-sensitive and -resistant isolates of C. sojina ([9]; range over Cs320 and Cs350, 48 h) [µM] | fold increase of MIC with increasing iron concentration ([10]; FeSO4 in SFM) [fold] | MIC (μM) against C. sojina, Fungicide resistant, Cs350 [10, 11] [µM] | MIC (μM) against C. sojina isolates, Fungicide sensitive, Cs320 [6, 11] [µM]
CO/C=C(/C(=O)OC)c1ccccc1Oc1cc(Oc2ccccc2C#N)ncn1 [Azoxystrobin, azoxystrobin] | additive (additive, >0.5–1.0) | ≤ 1 | 48 | > 48 | additive (additive, >0.5–1.0) | able to reduce FLS symptoms in planta | did not permeabilize the plasma membrane | 11 | 0.09 to 0.18 |  |  |  |  |  |  | 
RNGCIVDPRCPYQQCRRPLYCRRR [NCR247, reference compound] |  |  |  |  |  |  |  |  |  | reduced or stopped | visible color change of heme from brown to reddish-brown |  |  |  |  | 
TKPCQSDKDCKKFACRKPKVPKCINGFCKCVR (disulfide (positions not given here)) [NCR13_PFV2] |  |  |  |  |  |  |  |  |  | not reduced or stopped | no such color change | 2 | 1.5 to 3 | 2 | 3 | 1.5
